Where two headings read alike, the source gives them in different places.
How the values were obtained:
[1] = system: carrageenin-induced edema; assay: Carrageenin-induced edema suppression in rats (anti-inflammatory activity); type: in vivo, rat (male, Wistar strain); settings: for ED50: read-out: Anti-inflammatory activity, ED50
Experimental: Anti-inflammatory activity was tested as follows: Male rats of the Wistar strain were used in groups of 7. A test compound was suspended in a 0.2% carboxymethyl cellulose solution and orally administered in a dose of 0.5 ml/100 g of body weight. […] Three hours after injection of carrageenin, each rat was sacrificed by ether. The feet of both hind legs were amputated at the ankle joint and weighed to detect the difference in weight between both feet. Then, the ability of the test compound to suppress the carrageenin-induced edema was evaluated by comparing the foot weight difference of the test group with that of a control group (consisting of rats to which the solvent alone was administered). Specifically, the rate of suppression of the edema was calculated according to the following equation: [formula]

in vivo [2] = settings: rat, in vivo, po
Experimental: (§1) The incidence of gastric disorders in rats was tested as follows: Eight-weeks-old male rats of the Wistar strain were used in groups of 5 to 7. After they were fasted for 18 hours or more, a test compound was administered orally. Six hours later, each rat was sacrificed by decapitation. The stomach was removed, filled with 10 ml of physiological saline, and then fixed in 5% formalin. After about 10 minutes, the stomach was incised through the greater curvature and the presence or absence of gastric disorders (in particular, erosion) was examined by visual observation. According to Litchfield-Wilcoxon's method, the dose causing erosion to occur in 50% of the test animals, UD50, was calculated on an all-or-none basis.

[3] = system: carrageenin-induced edema; assay: Duration of anti-inflammatory activity (carrageenin edema, varied premedication time); type: in vivo, rat (male, Wistar strain); settings: for Rate of suppression of edema: dose = ED50
Excerpt: The premedication time was defined as the time interval between the administration of a test compound and the injection of carrageenin.

in vivo [4] = settings: mouse, in vivo, po
Experimental: (§2) A test compound was suspended in a 0.2% carboxymethyl cellulose solution and orally administered in a dose of 0.1 ml/10 g of body weight. […] The LD50 value was calculated on the basis of the death rates on the final day.

mice = assay: in vivo; settings: for Number of deaths/total number of test animals: p.o.
Experimental: as §2

[5] = system: stomach (gastric disorders, erosion); assay: Incidence of gastric disorders (erosion) in rats; settings: Table 1; ratio of UD50 (gastric) to ED50 (edema)
Experimental: as §1

[6] = Table 1; literature value: Pharmacometrics, 6(6), 1285 (1972) for indomethacin; Folia Pharmacologica Japonica, 69, 319 (1973) for diclofenac; cited from earlier work
[7] = cited from earlier work
[8] = Rattus norvegicus, po, 3 h, p.o., read-out: Rate of suppression of edema
[9] = 3 h, Table 1, rat, oral, carrageenin edema
[10] = Rattus norvegicus, po, 3 h, read-out: Rate of suppression of edema
[11] = Rattus norvegicus, po, 3 h, 1.25 mg/kg, p.o., read-out: Rate of suppression of edema
[12] = Rattus norvegicus, po, 3 h, 2.5 mg/kg, p.o., read-out: Rate of suppression of edema
[13] = Rattus norvegicus, po, 3 h, 5.0 mg/kg, p.o., read-out: Rate of suppression of edema

## CN1C(C(=O)Nc2ccc(Cl)cn2)C(=O)c2ccccc2S1(=O)=O (stereo not shown) [5-Chloro-2-pyridyl compound, N-(5-chloro-2-pyridyl)-3,4-dihydro-2-methyl-4-oxo-2H-1,2-benzothiazine-3-carboxamide 1,1-dioxide]
[1]; [8]
  inhibition in vivo at 6.5 mg/kg: 18.9%

## Cc1cccc(NC(=O)C2C(=O)c3ccccc3S(=O)(=O)N2C)n1 (stereo not shown) [6-Methyl-2-pyridyl compound, N-(6-methyl-2-pyridyl)-3,4-dihydro-2-methyl-4-oxo-2H-1,2-benzothiazine-3-carboxamide 1,1-dioxide]
[1]; [9]
  ED50: 4.5 mg/kg
[1]; Rattus norvegicus, po, 3 h, 1.75 mg/kg, p.o., read-out: Rate of suppression of edema
  inhibition in vivo at 1.75 mg/kg: 27.4%
[1]; [8]
  inhibition in vivo at 6.5 mg/kg: 58.9%
In vivo [2]
  TD50 at 6 h: 5.1 mg/kg

## CN1C(C(=O)Nc2cccc(F)n2)C(=O)c2ccccc2S1(=O)=O (stereo not shown) [Compound of formula (1), N-(6-fluoro-2-pyridyl)-3,4-dihydro-2-methyl-4-oxo-2H-1,2-benzothiazine-3-carboxamide 1,1-dioxide]
[1]; [9]
  ED50: 7.5 mg/kg
[1]; Rattus norvegicus, po, 3 h, 2.0 mg/kg, p.o., read-out: Rate of suppression of edema
  inhibition in vivo at 2 mg/kg: 20%
[1]; Rattus norvegicus, po, 3 h, 4.0 mg/kg, p.o., read-out: Rate of suppression of edema
  inhibition in vivo at 4 mg/kg: 32%
[1]; Rattus norvegicus, po, 3 h, 8.0 mg/kg, p.o., read-out: Rate of suppression of edema
  inhibition in vivo at 8 mg/kg: 54.6%
[1]; Rattus norvegicus, po, 3 h, 16.0 mg/kg, p.o., read-out: Rate of suppression of edema
  inhibition in vivo at 16 mg/kg: 66.6%
[1]; summary of results
  Anti-inflammatory activity (in words): potent and long-lasting anti-inflammatory activity
[3]; from Table 3
  Duration of anti-inflammatory activity (in words): excellent in the duration of anti-inflammatory activity
[3]; premedicated 1 hr.
  Rate of suppression of edema: 56.6%
[3]; premedicated 3 hr.
  Rate of suppression of edema: 54.8%
[3]; premedicated 6 hr.
  Rate of suppression of edema: 43.2%
[3]; premedicated 12 hr.
  Rate of suppression of edema: 39.1%
[3]; premedicated 24 hr.
  Rate of suppression of edema: 20.7%
[3]; premedicated 48 hr.
  Rate of suppression of edema: 3.4%
In vivo [2]
  TD50 at 6 h: 297 mg/kg
In vivo [4]
  LD50 at 168 h: > 5000 mg/kg
mice; 3,000 mg/kg
  Number of deaths/total number of test animals: 0/5
mice; 4,000 mg/kg
  Number of deaths/total number of test animals: 0/5
mice; 5,000 mg/kg
  Number of deaths/total number of test animals: 0/5
mice; Table 1, mouse, oral, 7 days
  Acute toxicity, LD50: > 5,000 mg/kg
mice; mouse, in vivo
  Degree of safety (in words): very high degree of safety

## O=C(O)Cc1ccccc1Nc1c(Cl)cccc1Cl [Diclofenac, diclofenac]
[1]; Rattus norvegicus, po, 3 h
  ED50: 5 mg/kg
[1]; [10]
  inhibition in vivo at 2.5 mg/kg: 29.7%
  inhibition in vivo at 5 mg/kg: 48.5%
  inhibition in vivo at 10 mg/kg: 69.3%
[3]; premedicated 1 hr.
  Rate of suppression of edema: 45.9%
[3]; premedicated 3 hr.
  Rate of suppression of edema: 24.7%
[3]; premedicated 6 hr.
  Rate of suppression of edema: 17.6%
[3]; premedicated 24 hr.
  Rate of suppression of edema: -1.2%
In vivo [2]
  TD50 at 6 h: 9.2 mg/kg

## COc1ccc2c(c1)c(CC(=O)O)c(C)n2C(=O)c1ccc(Cl)cc1 [Indomethacin, indomethacin]
[1]; Rattus norvegicus, po, 3 h
  ED50: 4.6 mg/kg
[1]; [10]
  inhibition in vivo at 1.25 mg/kg: 19.3%
  inhibition in vivo at 2.5 mg/kg: 22.8%
  inhibition in vivo at 5 mg/kg: 57.4%
  inhibition in vivo at 10 mg/kg: 73.3%
[3]; premedicated 1 hr.
  Rate of suppression of edema: 49.4%
[3]; premedicated 3 hr.
  Rate of suppression of edema: 57.6%
[3]; premedicated 6 hr.
  Rate of suppression of edema: 29.4%
[3]; premedicated 12 hr.
  Rate of suppression of edema: 18.8%
[3]; premedicated 24 hr.
  Rate of suppression of edema: -3.5%
In vivo [2]
  TD50 at 6 h: 5.4 mg/kg
[5]
  Therapeutic index, UD50/ED50: 1.2
In vivo [4]
  selectivity ratio: 3.7
[6]
  Acute toxicity, LD50: 17 mg/kg

## Cc1cc(NC(=O)C2C(=O)c3ccccc3S(=O)(=O)N2C)no1 (stereo not shown) [Isoxicam, 3,4-dihydro-2-methyl-N-(5-methyl-3-isoxazolyl)-4-oxo-2H-1,2-benzothiazine-3-carboxamide 1,1-dioxide]
[1]; [9]
  ED50: 15.5 mg/kg
[1]; Rattus norvegicus, po, 3 h, 3.75 mg/kg, p.o., read-out: Rate of suppression of edema
  inhibition in vivo at 3.75 mg/kg: 7.5%
[1]; Rattus norvegicus, po, 3 h, 7.5 mg/kg, p.o., read-out: Rate of suppression of edema
  inhibition in vivo at 7.5 mg/kg: 32.3%
[1]; Rattus norvegicus, po, 3 h, 15.0 mg/kg, p.o., read-out: Rate of suppression of edema
  inhibition in vivo at 15 mg/kg: 46.8%
[1]; Rattus norvegicus, po, 3 h, 30.0 mg/kg, p.o., read-out: Rate of suppression of edema
  inhibition in vivo at 30 mg/kg: 69.4%
[3]; premedicated 1 hr.
  Rate of suppression of edema: 54.2%
[3]; premedicated 3 hr.
  Rate of suppression of edema: 54.2%
[3]; premedicated 6 hr.
  Rate of suppression of edema: 45.8%
[3]; premedicated 12 hr.
  Rate of suppression of edema: 36.3%
[3]; premedicated 24 hr.
  Rate of suppression of edema: 19.5%
[3]; premedicated 48 hr.
  Rate of suppression of edema: 1.1%
In vivo [2]
  TD50 at 6 h: 250 mg/kg
In vivo [4]
  LD50 at 168 h: 5000 mg/kg
[7]; in vivo
  Degree of toxicity and incidence of gastric disorders (in words): relatively low
[7]; prior art
  Anti-inflammatory activity (in words): lower than that of Piroxicam and Sudoxicam

## CN1C(C(=O)Nc2ccccn2)C(=O)c2ccccc2S1(=O)=O (stereo not shown) [Piroxicam, 3,4-dihydro-2-methyl-4-oxo-N-(2-pyridyl)-2H-1,2-benzothiazine-3-carboxamide 1,1-dioxide]
[1]; [9]
  ED50: 1.75 mg/kg
[1]; Rattus norvegicus, po, 3 h, 0.625 mg/kg, p.o., read-out: Rate of suppression of edema
  inhibition in vivo at 0.625 mg/kg: 26.9%
[1]; [11]
  inhibition in vivo at 1.25 mg/kg: 42.5%
[1]; [12]
  inhibition in vivo at 2.5 mg/kg: 57%
[1]; [13]
  inhibition in vivo at 5 mg/kg: 76.4%
[3]; premedicated 1 hr.
  Rate of suppression of edema: 57.6%
[3]; premedicated 3 hr.
  Rate of suppression of edema: 55.3%
[3]; premedicated 6 hr.
  Rate of suppression of edema: 40.0%
[3]; premedicated 12 hr.
  Rate of suppression of edema: 38.8%
[3]; premedicated 24 hr.
  Rate of suppression of edema: 15.3%
[3]; premedicated 48 hr.
  Rate of suppression of edema: 1.7%
In vivo [2]
  TD50 at 6 h: 8.2 mg/kg
In vivo [4]
  LD50 at 168 h: 490 mg/kg
[7]; in vivo
  Degree of toxicity and incidence of gastric disorders (in words): not appreciably different from those of indomethacin and diclofenac
[7]; prior art
  Anti-inflammatory activity (in words): potent and long-lasting anti-inflammatory activity

## CN1C(C(=O)Nc2nccs2)C(=O)c2ccccc2S1(=O)=O (stereo not shown) [Sudoxicam, 3,4-dihydro-2-methyl-4-oxo-N-(2-thiazolyl)-2H-1,2-benzothiazine-3-carboxamide 1,1-dioxide]
[1]; [9]
  ED50: 5.1 mg/kg
[1]; [11]
  inhibition in vivo at 1.25 mg/kg: 14.9%
[1]; [12]
  inhibition in vivo at 2.5 mg/kg: 30.7%
[1]; [13]
  inhibition in vivo at 5 mg/kg: 45.5%
[1]; Rattus norvegicus, po, 3 h, 10.0 mg/kg, p.o., read-out: Rate of suppression of edema
  inhibition in vivo at 10 mg/kg: 69.3%
[3]; premedicated 1 hr.
  Rate of suppression of edema: 49.8%
[3]; premedicated 3 hr.
  Rate of suppression of edema: 52.1%
[3]; premedicated 6 hr.
  Rate of suppression of edema: 39.5%
[3]; premedicated 12 hr.
  Rate of suppression of edema: 31.6%
[3]; premedicated 24 hr.
  Rate of suppression of edema: 10.4%
[3]; premedicated 48 hr.
  Rate of suppression of edema: -2.4%
In vivo [2]
  TD50 at 6 h: 11.8 mg/kg
[5]
  Therapeutic index, UD50/ED50: 2.3
In vivo [4]
  LD50 at 168 h: 500 mg/kg
  selectivity ratio: 98
mice; 200 mg/kg
  Number of deaths/total number of test animals: 0/5
mice; 400 mg/kg
  Number of deaths/total number of test animals: 2/5
mice; 800 mg/kg
  Number of deaths/total number of test animals: 4/5
mice; 1,000 mg/kg
  Number of deaths/total number of test animals: 5/5
mice; from Table 1
  Therapeutic index and safety margin (in words): superior in therapeutic index and safety margin to indomethacin and diclofenac
[7]; prior art
  Anti-inflammatory activity (in words): potent and long-lasting anti-inflammatory activity
  Degree of toxicity and incidence of gastric disorders (in words): not appreciably different from those of indomethacin and diclofenac
